According to US10653680B2, “Treatment of impulsivity-related disorders” (OXFORD UNIVERSITY INNOVATION LIMITED, priority 2016, dated 2020):

How the values were obtained:
[1] = system: rats; experiment: 5-CSRTT, stimulant (cocaine)-induced responding; assay type: in vivo, rats (males; Long Evans)
Procedure: (§1) Testing was carried out in Vancouver (Canada) using rats (males; Long Evans from Charles River) which were given at least two weeks to acclimatise to the animal facility. They were housed in pairs on a 12 hour reverse light-dark cycle (lights off at 7 am). In the second week of acclimatisation, rats were handled briefly each day. […] For each task, there was then a habituation session to the operant boxes before training began.
(§2) Ebselen, cocaine and 2,5-dimethoxy-4-iodoamphetamine (DOI) were obtained from Sigma Aldrich, and MDL 100,907 was obtained from Tocris. Ebselen was dissolved in 0.5M DMSO and made up to injection volume (8 ml/kg) using 4% cyclodextrin. Cocaine and DOI were dissolved in 0.9% saline. MDL 100,907 was dissolved in 0.9% saline and the pH was adjusted to 6.25 using 1M NaOH and 0.1M HCl.
(§3) All data for the cognitive tasks are presented as mean+SEM change from baseline: • performance on drug day−performance on the previous day
In experiments investigating the effect of ebselen on cocaine and DOI, data were analysed with a two-way ANOVA with ebselen and cocaine/DOI as between-subject factors. If an interaction was detected, this was further investigated using simple main effects analysis. All analyses were conducted using SPSS 22 with p<0.05 considered significant.
To assess the effect of ebselen on stimulant-induced responding, ebselen (10 mg/kg) or vehicle was administered 1 hour prior to cocaine (15 mg/kg i.p.), which in turn was administered 10 minutes prior to testing. Treatments were administered using according to a Latin square design. The inter-trial interval for these sessions was 5 seconds. Two rats were excluded from the data due to increasing levels of omissions across all days of this portion of the study. The experiment was repeated using 0.03 mg/kg MDL 100,907 instead of ebselen.

[2] = system: rats; experiment: 5 Choice Serial Reaction Time Task (5-CSRTT); assay type: in vivo, rats (males; Long Evans)
Procedure: as §1, §2, §3
The data were analysed with repeated measures ANOVA with dose as a within-subject factor. Where appropriate, post-hoc analysis was performed using Student's paired t-test.
This test was performed as described previously (Bari et al., Nature Protocols, 2008, 3(5), 759-767; Robbins, Psychopharmacology, 2002, 163(3), 362-380).
Fourteen rats were trained to respond to brief visual cues presented in one of five target areas with an inter-trial interval of 5 seconds. On the day of testing in the presence of ebselen, the inter-trial interval was lengthened to 7 seconds to cause a reliable increase in premature responding.
Ebselen and vehicle were administered by intraperitoneal (i.p.) injection 1 hour prior to testing. Three doses of ebselen (2, 5 or 10 mg/kg) were studied, administration being in a random order that was determined by a Latin square design. Rats were run five days a week, with the treatment day falling on day three.
Following ebselen, 3 doses of MDL 100,907 (0.01, 0.03 and 0.1 mg/kg, i.p.) were tested in a Latin square design with the first injection occurring one week after the final injection of ebselen. MDL 100,907 is a selective 5-HT2A antagonist. Rats were similarly run five days a week with injections falling on the third day, and the lengthened inter-trial interval was used only on the drug-administration day.
The Latin square design (for both the 5-CSRTT and rGT experiments) was counterbalanced, based on performance in the last training day of each task. A one week wash-out period was given between drug-administration days. A baseline session was performed both the day before and the day after treatment to ensure stable off-drug performance.

For COc1cccc([C@H](O)C2CCN(CCc3ccc(F)cc3)CC2)c1OC [MDL 100,907, reference compound], which “cocaine-induced increases in premature responding” value ([1]; MDL 100,907 0.03 mg/kg before cocaine 15 mg/kg i.p., p=0.282) is on record?
The value was “did not reduce cocaine-induced increases in premature responding”.

And the correct response latency ([1]; MDL 100,907 0.03 mg/kg, cocaine experiment, p=0.072)?
Its correct response latency is “increased trend”.

And the “accuracy (decrease seen following vehicle injection)” value ([2]; MDL 100,907 0.01 mg/kg (second mention), p=0.027)?
Its value is “significantly negated the decrease in accuracy”.

And the “accuracy (decrease seen following vehicle injection)” value ([2]; MDL 100,907 0.01 mg/kg i.p., p=0.020)?
The value was “significantly negated the decrease in accuracy”.

And the “accuracy (decrease seen following vehicle injection)” value ([2]; MDL 100,907 0.03 mg/kg i.p., p=0.052)?
The value was “trend”.

What about the “other parameters of the 5-CSRTT” value ([2]; MDL 100,907 0.01, 0.03, 0.1 mg/kg i.p., p=0.170-0.872) of the same compound?
The value was “no detectable effects”.

What about the premature responding ([2]; MDL 100,907 at all dosage levels (0.01, 0.03 and 0.1 mg/kg i.p.) vs vehicle, p=0.008, 0.009, 0.001) of the same compound?
Its premature responding is “decreased premature responding”.
